Drawing on US12226399B2, “Oral aqueous suspension formulation comprising carbamate compound” (SK BIOPHARMACEUTICALS CO., LTD., priority 2021, dated 2025), this text covers Wetting of cenobamate for one compound.

The series in a line: Visual wetting of cenobamate API on wetting agent solution. Type of series: physicochemical. Conditions: in the presence of poloxamer 188; time for cenobamate to fall below the surface. As to the method: Poloxamer 188 was evaluated at different concentrations for sedimentation volume, dispensability and wettability of cenobamate containing dispersion in a neat citrate or phosphate buffer at pH 3 to 7. Approximately one hundred milligrams (100 mg) of cenobamate was dispersed in 10 mL of the poloxamer liquid at the concentration of 0.10, 0.50, 1.00, and 1.50 mg/mL in phosphate buffer pH 4.2 and the dispersions were evaluated for sedimentation volume, re-dispersibility, and wettability. Additionally, separate samples containing poloxamer 188 at the concertation of 0.1 mg/ml were also prepared in citrate buffer at different levels of pH (pH 3.5, 4.2 and 5.2), and evaluated in the same manner.
The volume of the sedimentation layer is an indicator to the amount of spacing between the particles in the sediment layer. Physical observations indicated these dispersions settled rapidly but formed a loosely packed layer which was very easily re-dispersed after inversion and/or shaking (FIGS. 1 and 2).
The following intended effects that were observed are immediate wetting of most of the material after adding cenobamate to the poloxamer solution, rapid and loose initial sedimentation within first 30 minutes to 1 hour as measured by ratio of sediment volume to total volume, no caking and efficient re-dispersion, rapidly dispersing material after shaking the settled sample for 10 seconds.

Turning to `NC(=O)O[C@@H](Cn1ncnn1)c1ccccc1Cl` [cenobamate, carbamic acid (R)-1-(2-chlorophenyl)-2-tetrazol-2-yl-ethyl ester], the Wetting of cenobamate entry was “good wetting”.
